# Laboratory results published in patent US11215617B2, “Treatment of metastatic prostate cancer” (The Regents of the University of California, priority 2013, dated 2022).
# “Also recorded” adds a separate entry of the source. Where a SMILES comes first, the peptide text is derived from it. The star is where a group is joined. Cbz = O=C(OCc1ccccc1)*
# What was measured:
# LNCaP-s17 cells [1] = assay: Cell growth assay; assay type: cell-based, human
# AR-V7 = biological target: T1, AR-V7 (Homo sapiens, UniProt P10275); assay: AR-V7 protein degradation after cycloheximide block in CWR22rv1 cells; assay type: cell-based; conditions: MG132 5 μM, cycloheximide 50 μg/mL, 2 μM niclosamide, 8 h
# T1 construct: CWR22rv1 cells, which express high endogenous AR-V7; endogenous in cells; host or cells: CWR22rv1
# T1 sequence (P10275 1-644 isoform P10275-3): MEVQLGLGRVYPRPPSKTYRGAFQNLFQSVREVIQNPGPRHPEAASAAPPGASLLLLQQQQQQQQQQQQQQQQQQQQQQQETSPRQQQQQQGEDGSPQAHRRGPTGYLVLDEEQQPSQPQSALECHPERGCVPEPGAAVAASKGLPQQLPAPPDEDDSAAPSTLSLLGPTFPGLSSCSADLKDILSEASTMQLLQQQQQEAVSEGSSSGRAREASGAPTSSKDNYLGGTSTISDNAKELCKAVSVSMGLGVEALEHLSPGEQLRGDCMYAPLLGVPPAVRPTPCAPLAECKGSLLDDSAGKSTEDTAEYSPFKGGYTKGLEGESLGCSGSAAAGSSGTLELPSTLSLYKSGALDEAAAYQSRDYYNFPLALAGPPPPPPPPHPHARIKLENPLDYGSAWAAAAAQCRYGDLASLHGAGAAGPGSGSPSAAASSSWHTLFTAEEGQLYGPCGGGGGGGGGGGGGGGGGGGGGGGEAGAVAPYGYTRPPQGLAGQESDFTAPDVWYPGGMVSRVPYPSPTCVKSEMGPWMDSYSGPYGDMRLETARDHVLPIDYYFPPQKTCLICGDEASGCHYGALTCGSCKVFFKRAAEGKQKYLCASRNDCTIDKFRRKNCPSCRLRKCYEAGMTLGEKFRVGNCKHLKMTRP
# Protocol: At specified time points, cells were harvested, and the levels of AR-V7 protein were measured by Western blot using antibodies specific against AR-V7. […] The cell lysates were prepared at 8 h. AR-V7 protein levels were determined by Western blot analysis using antibodies specifically against AR-V7 and tubulin as a control.
# At specified time points, cells were harvested, and the levels of AR-V7 protein were measured by Western blot using antibodies specific against AR-V7.
# [2] = tested on: prostate cancer cells (CWR22rv1, C4-2 AR-V7, C4-2 neo); assay: Clonogenic assay; assay type: cell-based; conditions: 0, 0.5, 1.0 μM niclosamide
# [3] = tested on: cancer cell metastasis and migration; conditions: in vitro and in vivo, reported; cited from earlier work
# cancer cells = conditions: some reports suggest; cited from earlier work
# LNCaP-STAT3C cells = assay: Cell migration or invasion (FIG. 25); assay type: cell-based, human
# AR = assay: PSA luciferase assay in LNCaP cells, DHT induced; assay type: cell-based, human; conditions: niclosamide or enzalutamide with DHT overnight
# From the text: LNCaP, C4-2 or 293 cells were transfected with pGL3-PSA6.0-Luc, pGL3-AREI/II-Luc reporters along with AR-V7, for example as indicated in the figures, in FBS or CS-FBS condition. Cell lysates were subjected to luciferase assays with the Luciferase Assay System (Promega).
# [4] = tested on: recruitment of AR-V7 to PSA promoter; assay: ChIP assay in C4-2 AR-V7 cells; assay type: cell-based; conditions: CS-FBS 3 days, niclosamide (0.5 μM and 1 μM) or 20 μM enzalutamide overnight
# Protocol: C4-2 neo and C4-2 AR-V7 cells were treated as noted herein. DNA-AR protein complexes were cross-linked inside the cells by the addition of 1% formaldehyde. Whole-cell extracts were prepared by sonication, and an aliquot of the cross-linked DNA-protein complexes was immunoprecipitated by incubation with the AR-specific antibody (AR-441 obtained from Santa Cruz Biotechnology) overnight at 4° C. with rotation. Chromatin-antibody complexes were isolated from solution by incubation with protein A/G agarose beads for 1 hour at 4° C. with rotation. The bound DNA-protein complexes were washed and eluted from beads with elution buffer (1% SDS and 0.1 mol/L NaHCO3), crosslinking was reversed, and DNA was extracted. The resulting chromatin preparations were analyzed by PCR using primers spanning either the proximal or the distal enhancer AREs of the PSA promoter. Isotype-matched IgG was used as control.
# PSA [5] = assay: PSA ELISA of culture supernatants of C4-2 AR-V7 cells; assay type: cell-based; conditions: CS-FBS, 1.0 μM niclosamide overnight
# Protocol: PSA levels were measured in the culture supernatants using ELISA (United Biotech, Inc., Mountain View, Calif.) according to the manufacturer's instructions.
# [6] = tested on: pz-HPV7 normal prostate epithelial cells; assay: Cell growth assay (cell numbers counted, cell survival rate); assay type: cell-based; conditions: 0.5 μM niclosamide, 48 hours
# Protocol: (§1) Total cell numbers were counted and the cell survival rate (%) was calculated. Cell survival rate (%)=(Treatment group cell number/Control group cell number)×100%. […] Total cell numbers were counted after 2, 4, and 7 days. […] The cells were treated as indicated and total cell numbers were counted.
# [7] = tested on: prostate cancer cells (C4-2 neo, C4-2 AR-V7, CWR22rv1); assay: as above; assay type: cell-based; conditions: 0.5 μM niclosamide, 48 hours, media containing FBS
# Protocol: as §1
# CWR22rv1 cells [8] = assay: Clonogenic assay
# STAT3 [9] = conditions: DU145 cells, shown previously; cited from earlier work
# pz-HPV7 cells = assay: Cell death ELISA (apoptosis); assay type: cell-based; conditions: 0.5 μM niclosamide, 48 hours
# Protocol: (§2) Floating and attached cells were collected and homogenized in 400 μL of incubation buffer. The wells were coated with antihistone antibodies and incubated with the lysates, horseradish peroxidase-conjugated anti-DNA antibodies, and the substrate. Absorbance was measured at 405 nm.
# [10] = tested on: prostate cancer cells (C4-2 neo, C4-2 AR-V7, CWR22rv1); assay: Cell death ELISA (apoptosis); assay type: cell-based; conditions: 0.5 μM niclosamide, 48 hours
# Protocol: as §2
# LNCaP-s17 cells [11] = assay: Cell migration or invasion (FIG. 24); assay type: cell-based, human
# CWR22rv1 xenografts = assay: CWR22rv1 xenograft tumor growth in SCID mice; assay type: in vivo; conditions: 3 weeks
# Protocol: (§3) CWR22rv1 cells (3 million) were mixed with matrigel (1:1) and injected subcutaneously into the flanks of 6-7 week male SCID mice. […] Tumors were measured using calipers twice a week and tumor volumes were calculated using length×width2/2. Tumor tissues were harvested after 3 weeks of treatment.
# Tumors were measured using calipers twice a week and tumor volumes were calculated using length×width2/2. Tumor tissues were harvested after 3 weeks of treatment. The results are depicted in FIGS. 40A-40D.
# as §3, with “For the in vivo experiment, CWR22Rv1” for “CWR22rv1”, “(4” for “(3”, “of” for “of 6-7 week”, “treatment. The results are depicted in FIGS. 42A-42D.” for “treatment.”
# CWR22Rv1 cells (4 million) were mixed with matrigel (1:1) and injected subcutaneously into the flanks of 6-7 week male SCID mice. […] Tumors were measured using calipers twice a week and tumor volumes were calculated using length×width2/2. Tumor tissues were harvested after 3 weeks of treatment.
# CWR22rv1 cells [12] = assay: Cell growth assay; assay type: cell-based; conditions: dose and time dependent
# Protocol: Total cell numbers were counted after 3 or 5 days. […] Total cell numbers were counted or the cell survival rate (%) was calculated. Cell survival rate (%)=(Treatment group cell number/Control group cell number)×100%.
# C4-2B and C4-2B MR cells = assay: Growth or viability (FIG. 22); assay type: cell-based
# [13] = tested on: C4-2B and C4-2B AbiR cells; assay: Growth or viability (FIG. 23); assay type: cell-based
# prostate cancer cells = assay: Cell growth, migration, invasion and colony formation (FIGS. 16-19); assay type: cell-based; conditions: effect appears to be dose dependent
# STAT3 [14] = assay: STAT3 activation in LNCaP-s17 cells; assay type: cell-based, human
# Protocol: (§4) Whole cell protein extracts were resolved on SDS-PAGE and proteins were transferred to nitrocellulose membranes. […] Tubulin was used to monitor the amounts of samples applied. Following secondary antibody incubation, immunoreactive proteins were visualized with an enhanced chemiluminescence detection system (Millipore, Billerica, Mass.).
# PSA [15] = assay: Western blot of PSA protein in C4-2 AR-V7 cells; assay type: cell-based; conditions: CS-FBS, 1.0 μM niclosamide or 20 μM enzalutamide overnight
# Protocol: as §4
# C4-2B MR cells [16] = assay: Clonogenic assay; assay type: cell-based
# C4-2B MR cells [17] = assay: Cell growth assay; assay type: cell-based; conditions: different concentrations, 48 hours
# Protocol: as §1
# normal cells = conditions: some reports suggest; cited from earlier work
# [18] = C4-2B MR cells, 0.5 μM or 1.0 μM niclosamide, 10 μM or 20 μM enzalutamide
smiles,measurement,setting,value
N#C/C(=C/c1ccc(O)c(O)c1)C(=O)NCc1ccccc1 [AG490],reversal of enzalutamide resistance,"LNCaP-s17 cells [1]; 10 μM AG490 with 20 μM enzalutamide, 48 h",reverse enzalutamide resistance
CC(C)C[C@@H](C=O)NC(=O)[C@H](CC(C)C)NC(=O)[C@H](CC(C)C)NC(=O)OCc1ccccc1 [MG132] (Cbz-Leu-Leu-Leu-aldehyde),niclosamide effect on AR-V7 protein levels in presence of MG132,AR-V7,able to retard the niclosamide effect on AR-V7 protein levels
"O=C(Nc1ccc([N+](=O)[O-])cc1Cl)c1cc(Cl)ccc1O [niclosamide, (5-chloro-N-2chloro-4-nitro-phenyl)-2-hydroxybenzamide]",clonogenic ability,[2],significantly inhibited clonogenic ability of prostate cancer cells in a dose dependent manner
same,cancer cell metastasis and migration,[3],inhibit cancer cell metastasis and migration in vitro and in vivo
same,activity against cancer cells,cancer cells,active against cancer cells
same,cell migration or invasion,LNCaP-STAT3C cells,inhibits cell migration or invasion
same,DHT induced AR transcriptional activity,AR,dramatically inhibited DHT induced AR transcriptional activity
same,recruitment of AR-V7 to PSA promoter,[4],significantly reduced recruitment of AR-V7 to PSA promoter
same,PSA levels (ELISA),PSA [5],significantly inhibited PSA levels
same,cell growth,[6],little effects
same,cell growth,[7],significantly inhibited cell growth
same,colony formation,"CWR22rv1 cells [8]; CWR22rv1 cells, 0, 0.5 μM or 1.0 μM niclosamide",inhibited colony formation in a dose dependent manner
same,enhancement of enzalutamide inhibition of colony formation,"CWR22rv1 cells [8]; CWR22rv1 cells, 0.25 μM niclosamide with 20 μM enzalutamide",significantly enhances enzalutamide inhibition of colony formation
same,STAT3 expression,STAT3 [9],able to inhibit STAT3 expression
same,cell apoptosis (cell death ELISA),pz-HPV7 cells,little effect
same,cell apoptosis (cell death ELISA),[10],significantly induced cell apoptosis
same,cell migration or invasion,LNCaP-s17 cells [11],inhibits cell migration or invasion
same,enhancement of bicalutamide effects in vivo,"CWR22rv1 xenografts; bicalutamide 25 mg/kg p.o. + niclosamide 25 mg/kg i.p., 5 days per week",enhanced bicalutamide treatment; also recorded: significantly enhanced bicalutamide effects
same,tumor volume,"CWR22rv1 xenografts; enzalutamide 25 mg/kg p.o., niclosamide 25 mg/kg i.p., or both",decreased the tumor volume
same,xenograft tumor growth,"CWR22rv1 xenografts; niclosamide 200 mg/kg p.o. B.I.D., 5 days per week",significantly inhibited Rv1 xenograft tumor growth
same,enhancement of bicalutamide effects in vitro,CWR22rv1 cells [12],significantly enhanced bicalutamide effects
same,enhancement of the effect of enzalutamide on growth or viability,C4-2B and C4-2B MR cells,enhances the effect of enzalutamide
same,"cell growth, time dependent experiment","LNCaP-s17 cells [1]; 20 μM enzalutamide and 0.25 μM niclosamide individually or in combination, 2, 4 and 7 days",little effect
same,enhancement of the effect of abiraterone on growth or viability,[13],enhances the effect of arbiraterone
same,cell growth,prostate cancer cells,inhibits
same,colony formation,prostate cancer cells,inhibits
same,invasion,prostate cancer cells,inhibits
same,migration,prostate cancer cells,inhibits
same,STAT3 activation,STAT3 [14],significantly inhibited STAT3 activation; also recorded: inhibited constitutively active STAT3 in a dose dependent manner
same,PSA protein expression (western blot),PSA [15],significantly inhibited PSA protein expression
same,colony formation,C4-2B MR cells [16]; [18],significantly inhibited colony formation; also recorded: inhibited colony formation in a dose dependent manner
same,colony size,C4-2B MR cells [16]; [18],significantly inhibited the colony size
same,colony formation,"C4-2B MR cells [16]; C42B MR cells, 0.25 μM niclosamide (FIGS. 37 and 38)",significantly inhibits colony formation
same,enhancement of enzalutamide inhibition of colony formation,"C4-2B MR cells [16]; C42B MR cells, 0.25 μM niclosamide with 20 μM enzalutamide",significantly enhances enzalutamide inhibition of colony formation
same,cell growth (total cell numbers),C4-2B MR cells [17],significantly inhibited; also recorded: inhibited C4-2B MR cell growth in a dose dependent manner
same,viability of normal cells,normal cells,minimal effects on the viability of normal cells
